A word on the Ki: it is a dissociation constant, usually derived from enzyme kinetics or from competition with a known ligand. Read a low Ki as tighter binding.

Consider 22 compounds from ChEMBL document CHEMBL1135421, “2-(Anilinomethyl)imidazolines as alpha1 adrenergic receptor agonists: the discovery of alpha1a subtype selective 2'-alkylsulfonyl-substituted analogues” (J Med Chem, 2002).

In assay [1] the target is T1, Alpha-2C adrenergic receptor (Homo sapiens, UniProt P18825).
T1 sequence (P18825 whole entry): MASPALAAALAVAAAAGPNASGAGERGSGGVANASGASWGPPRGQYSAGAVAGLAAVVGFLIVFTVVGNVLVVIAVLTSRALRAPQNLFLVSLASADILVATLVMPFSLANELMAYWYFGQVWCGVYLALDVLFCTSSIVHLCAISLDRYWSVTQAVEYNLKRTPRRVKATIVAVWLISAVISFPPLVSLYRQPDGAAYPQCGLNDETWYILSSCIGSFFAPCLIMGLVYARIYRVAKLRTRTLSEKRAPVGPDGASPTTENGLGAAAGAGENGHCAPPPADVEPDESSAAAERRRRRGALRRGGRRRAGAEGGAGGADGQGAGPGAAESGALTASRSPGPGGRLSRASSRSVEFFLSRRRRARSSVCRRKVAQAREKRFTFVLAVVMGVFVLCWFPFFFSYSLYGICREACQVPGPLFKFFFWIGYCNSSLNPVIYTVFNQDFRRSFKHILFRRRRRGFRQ
The assay is described as follows: Affinity to human Alpha-2C adrenergic receptor determined by radioligand binding techniques from chinese hamster ovary (CHO) cells. The class given is cell-based.

In assay [2] the target is T2, Alpha-1A adrenergic receptor (Homo sapiens, UniProt P35348).
T2 sequence (P35348 whole entry): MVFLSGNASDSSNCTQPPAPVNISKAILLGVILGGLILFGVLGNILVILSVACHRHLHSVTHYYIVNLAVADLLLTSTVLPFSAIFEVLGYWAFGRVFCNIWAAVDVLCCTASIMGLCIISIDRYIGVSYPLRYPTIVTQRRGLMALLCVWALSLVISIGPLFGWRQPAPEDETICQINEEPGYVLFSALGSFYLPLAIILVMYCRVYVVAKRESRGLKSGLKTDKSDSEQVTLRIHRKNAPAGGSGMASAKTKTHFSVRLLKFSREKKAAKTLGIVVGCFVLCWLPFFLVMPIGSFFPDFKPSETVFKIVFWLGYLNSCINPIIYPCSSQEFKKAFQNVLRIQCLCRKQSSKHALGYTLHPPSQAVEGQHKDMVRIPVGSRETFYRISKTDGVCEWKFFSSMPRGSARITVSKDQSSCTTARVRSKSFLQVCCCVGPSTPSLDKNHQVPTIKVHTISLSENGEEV
The assay is described as follows: Affinity to Alpha-1 adrenergic receptor determined by radioligand binding techniques from rat-1 fibroblasts membranes.

Assay [3] has as its target T3, Alpha-1B adrenergic receptor (Homo sapiens, UniProt P35368).
T3 sequence (P35368 whole entry): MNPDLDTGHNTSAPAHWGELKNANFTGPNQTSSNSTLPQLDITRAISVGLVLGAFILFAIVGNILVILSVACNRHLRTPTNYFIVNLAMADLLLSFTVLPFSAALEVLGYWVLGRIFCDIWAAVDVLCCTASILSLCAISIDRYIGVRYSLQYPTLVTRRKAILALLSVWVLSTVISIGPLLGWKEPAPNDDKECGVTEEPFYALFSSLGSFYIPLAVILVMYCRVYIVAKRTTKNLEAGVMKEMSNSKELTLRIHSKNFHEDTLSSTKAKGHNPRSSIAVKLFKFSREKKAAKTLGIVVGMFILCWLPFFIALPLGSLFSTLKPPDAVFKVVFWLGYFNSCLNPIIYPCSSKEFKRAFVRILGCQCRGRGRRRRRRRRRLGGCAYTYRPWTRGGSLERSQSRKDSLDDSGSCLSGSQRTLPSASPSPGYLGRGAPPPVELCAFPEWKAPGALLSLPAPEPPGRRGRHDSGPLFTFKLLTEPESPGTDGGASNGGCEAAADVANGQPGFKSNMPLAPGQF
As to the kind of experiment: Affinity to human Alpha-1B adrenergic receptor determined by radioligand binding techniques from rat-1 fibroblasts membranes.

In assay [4] the target is T4, Alpha-2B adrenergic receptor (Homo sapiens, UniProt P18089).
T4 sequence (P18089 whole entry): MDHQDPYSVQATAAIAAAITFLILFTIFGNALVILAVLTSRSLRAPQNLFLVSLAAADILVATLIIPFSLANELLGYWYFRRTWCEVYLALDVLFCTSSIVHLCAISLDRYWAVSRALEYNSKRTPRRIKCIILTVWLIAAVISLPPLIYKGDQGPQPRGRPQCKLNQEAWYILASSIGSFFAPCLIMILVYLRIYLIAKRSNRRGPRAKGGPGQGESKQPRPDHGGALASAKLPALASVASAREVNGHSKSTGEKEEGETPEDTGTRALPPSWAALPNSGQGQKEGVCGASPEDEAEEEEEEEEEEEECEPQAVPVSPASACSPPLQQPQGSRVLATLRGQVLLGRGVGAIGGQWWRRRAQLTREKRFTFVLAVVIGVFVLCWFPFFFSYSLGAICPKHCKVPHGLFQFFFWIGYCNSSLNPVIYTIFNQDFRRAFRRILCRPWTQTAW
The assay is described as follows: Affinity to human Alpha-2B adrenergic receptor determined by radioligand binding techniques from chinese hamster ovary (CHO) cells. Type of assay: cell-based.

Assay [5] deals with T5, Alpha-1D adrenergic receptor (Homo sapiens, UniProt P25100).
T5 sequence (P25100 whole entry): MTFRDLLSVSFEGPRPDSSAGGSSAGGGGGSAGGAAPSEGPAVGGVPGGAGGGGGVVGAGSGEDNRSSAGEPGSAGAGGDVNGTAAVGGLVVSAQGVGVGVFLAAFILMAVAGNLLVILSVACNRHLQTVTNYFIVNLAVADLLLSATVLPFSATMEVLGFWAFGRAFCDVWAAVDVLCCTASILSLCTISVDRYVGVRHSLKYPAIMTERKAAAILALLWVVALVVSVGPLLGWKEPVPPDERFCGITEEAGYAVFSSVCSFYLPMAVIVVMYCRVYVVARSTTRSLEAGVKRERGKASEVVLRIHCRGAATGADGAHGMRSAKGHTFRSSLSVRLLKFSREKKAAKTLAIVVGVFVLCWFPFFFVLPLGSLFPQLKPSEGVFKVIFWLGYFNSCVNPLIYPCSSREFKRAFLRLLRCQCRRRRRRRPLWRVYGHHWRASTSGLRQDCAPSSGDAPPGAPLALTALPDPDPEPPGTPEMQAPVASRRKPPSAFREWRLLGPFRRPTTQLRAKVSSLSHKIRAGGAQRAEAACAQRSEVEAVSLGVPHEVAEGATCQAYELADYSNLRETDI
The assay is described as follows: Affinity to human Alpha-1D adrenergic receptor determined by radioligand binding techniques from rat-1 fibroblasts membranes.

For assay [6], the target named is T6, Alpha-2C adrenergic receptor (Homo sapiens) (UniProt P18825).
T6 sequence (whole entry): T1 sequence (P18825 whole entry)
The assay is described as follows: Efficacy as percentage of the maximal effect observed for nonselective agonist UK-14304 in CHO cells expressing human Alpha-2C adrenergic receptor. The class given is functional, cell-based.

On to `CS(=O)(=O)c1ccccc1NCC1=NCCN1`, for which the Ki was above 5010 nM in assay [1]; 589 nM in assay [2]; 1290 nM in assay [3]; above 6310 nM in assay [4]; 3800 nM in assay [5]. Besides, the Max in assay [6] is 68%.

Consider `CS(=O)(=O)c1cc(Cl)ccc1NCC1=NCCN1`, for which the Ki in assay [1] is 3980 nM; in assay [2] it was 457 nM; in assay [3] it was 646 nM; in assay [4], above 6310 nM; in assay [5] it was 871 nM. Besides, in assay [6], the Max amounted to 54%.

Take `Cc1ccc(S(C)(=O)=O)c(NCC2=NCCN2)c1`: the Ki in assay [1] is above 5010 nM; in assay [2] it was 776 nM; in assay [3], 3470 nM; in assay [4], above 6310 nM; in assay [5], 4790 nM. Also, the Max in assay [6] was determined as 76%.

`CSc1ccccc1NCC1=NCCN1`: the Ki in assay [1] was 145 nM; in assay [2], 43.7 nM; in assay [3], 66.1 nM; in assay [4] it was 776 nM; in assay [5], 11.2 nM. Moreover, the Max in assay [6] is 82%.

As to `CS(=O)(=O)c1c(F)cccc1NCC1=NCCN1`, the Ki in assay [1] was 257 nM; in assay [2], 550 nM; in assay [3], 2290 nM; in assay [4], above 6310 nM; in assay [5], 3470 nM. The compound also returned a Max in assay [6] of 93%.

For `CCS(=O)(=O)c1ccccc1NCC1=NCCN1`, the Ki in assay [1] is 2510 nM; in assay [2] it was 1200 nM; in assay [3], 912 nM; in assay [4], above 6310 nM; in assay [5], 2240 nM. The same compound displayed a Max in assay [6] of 64%.

In the case of `C[S+]([O-])c1ccccc1NCC1=NCCN1` (configuration not stated), the Ki was above 5010 nM in assay [1]; 1290 nM in assay [2]; 794 nM in assay [3]; above 6310 nM in assay [4]; 1200 nM in assay [5]. The compound also returned a Max in assay [6] of 74%.

As for `CS(=O)(=O)c1cc(F)ccc1NCC1=NCCN1`, the Ki is above 5010 nM in assay [1]; 661 nM in assay [2]; 513 nM in assay [3]; above 6310 nM in assay [4]; 1620 nM in assay [5]. This compound also displayed a Max in assay [6] of 32%.

For the compound `CSc1ccc(F)cc1NCC1=NCCN1`, the Ki in assay [1] is 115 nM; in assay [2], 33.1 nM; in assay [3] it was 40.7 nM; in assay [4] it was 331 nM; in assay [5], 6.17 nM. In assay [6], the Max was 97%.

For the compound `CCCS(=O)(=O)c1ccccc1NCC1=NCCN1`, the Ki in assay [1] was 2630 nM; in assay [2], 2190 nM; in assay [3], 832 nM; in assay [4], above 6310 nM; in assay [5], 1380 nM. This compound gave a Max in assay [6] of 56%.

Consider `CSc1ccc(Cl)cc1NCC1=NCCN1`, for which the Ki in assay [1] was 170 nM; in assay [2] it was 18.6 nM; in assay [3], 69.2 nM; in assay [4], 676 nM; in assay [5], 4.68 nM. The same compound displayed a Max in assay [6] of 92%.

On to `CSc1c(F)cccc1NCC1=NCCN1`, for which the Ki is 219 nM in assay [1]; 148 nM in assay [2]; 240 nM in assay [3]; 3980 nM in assay [4]; 302 nM in assay [5]. The same compound gave a Max in assay [6] of 104%.

For the compound `CSc1ccc(C)cc1NCC1=NCCN1`, the Ki in assay [1] was 200 nM; in assay [2] it was 20.9 nM; in assay [3], 123 nM; in assay [4], 977 nM; in assay [5], 17.4 nM. For the same compound, in assay [6], the Max is 81%.

Take `CS(=O)(=O)c1cccc(F)c1NCC1=NCCN1`: the Ki is 692 nM in assay [1]; 417 nM in assay [2]; 380 nM in assay [3]; above 6310 nM in assay [4]; 912 nM in assay [5]. The Max in assay [6] turned out to be 93%.

On to `CS(=O)(=O)c1ccc(F)cc1NCC1=NCCN1`, for which the Ki was above 5010 nM in assay [1]; 813 nM in assay [2]; 1320 nM in assay [3]; above 6310 nM in assay [4]; 2630 nM in assay [5]. Further, the Max in assay [6] was found to be 91%.

In the case of `CS(=O)(=O)c1ccc(Cl)cc1NCC1=NCCN1`, the Ki in assay [1] is 4790 nM; in assay [2] it was 537 nM; in assay [3], 2950 nM; in assay [4], above 6310 nM; in assay [5] it was 2400 nM. In assay [6], the Max amounted to 81%.

For the compound `CC(C)Sc1ccccc1NCC1=NCCN1`, the Ki is 166 nM in assay [1]; 57.5 nM in assay [2]; 170 nM in assay [3]; 2340 nM in assay [4]; 224 nM in assay [5]. The same compound showed a Max in assay [6] of 91%.

Turning to `CSc1cc(F)ccc1NCC1=NCCN1`, the Ki in assay [1] was 219 nM; in assay [2] it was 20.9 nM; in assay [3], 15.1 nM; in assay [4], 851 nM; in assay [5] it was 5.01 nM. This compound also came in with a Max in assay [6] of 82%.

As to `CS(=O)(=O)c1ccc(C(F)(F)F)cc1NCC1=NCCN1`, the Ki in assay [1] was above 5010 nM; in assay [2] it was above 12600 nM; in assay [3], above 10000 nM; in assay [4] it was above 6310 nM; in assay [5], above 15800 nM. Also, the Max in assay [6] stood at 25%.

Turning to `CSc1ccc(C(F)(F)F)cc1NCC1=NCCN1`, the Ki in assay [1] is 603 nM; in assay [2] it was 589 nM; in assay [3] it was 2040 nM; in assay [4] it was 1660 nM; in assay [5], 479 nM. This compound also had a Max in assay [6] of 45%.

Consider `CC(C)S(=O)(=O)c1ccccc1NCC1=NCCN1`, for which the Ki in assay [1] was above 5010 nM; in assay [2] it was 2690 nM; in assay [3], 1000 nM; in assay [4] it was above 6310 nM; in assay [5], 2820 nM. In assay [6], this compound displayed a Max of 50%.

In the case of `COc1ccc(SC)c(NCC2=NCCN2)c1`, the Ki in assay [1] was 603 nM; in assay [2] it was 174 nM; in assay [3], 692 nM; in assay [4], above 6310 nM; in assay [5] it was 107 nM. Also, the Max in assay [6] was determined as 74%.
